Values after ≈ are worked out from the molar mass of the structure shown.
How the values were obtained:
Format in all cases: in vivo
rice [1] = experiment: Treatment of soil under submerged condition, pre-emergence (Test 4), injury; conditions: 30 g ai/a granule, 30 days later
Summary of the method: (§1)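 Scores reflect weed emergence and rice injury observed 30 days after a pre-emergence granule treatment. The granule, holding a predetermined amount of test composition, went onto submerged soil pots one day after sowing weeds and transplanting 2–3-leaf rice seedlings.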

narrowleaf waterplantain = experiment: Petri dish test (Test 6); conditions: 336 h; seeds on filter paper, 25° C., 14 days; read-out: I80 (ppm)
Summary of the method: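 Narrowleaf waterplantain seeds placed on filter paper pre-treated with compound in acetone (solvent air-dried) in 9 cm Petri dishes with 10 ml water, grown at 25° C in light. Growth was scored after fourteen days as degree of damage against an untreated group.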

green foxtail = experiment: Upland foliar application test (Test 3); conditions: 30 g ai/a, foliar spray at 2-3 leaves, 30th day
Summary of the method: (§2)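 Greenhouse pots, upland soil; seedlings at 2-3 leaves. Foliar ULV spray of water-diluted emulsion, 5 l/are. Injury/damage rated 30 d after spraying.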

johnsongrass = experiment: Upland foliar application test (Test 3); conditions: 30 g ai/a, foliar spray at 2-3 leaves, 30th day
Summary of the method: as §2

common lambsquarters = experiment: Upland foliar application test (Test 3); conditions: 30 g ai/a, foliar spray at 2-3 leaves, 30th day
Summary of the method: as §2

redroot pigweed = experiment: Upland foliar application test (Test 3); conditions: 30 g ai/a, foliar spray at 2-3 leaves, 30th day
Summary of the method: as §2

foxtail meadow = experiment: Upland foliar application test (Test 3); conditions: 30 g ai/a, foliar spray at 2-3 leaves, 30th day
Summary of the method: as §2

barnyardgrass [2] = experiment: Upland foliar application test (Test 3); conditions: 30 g ai/a, foliar spray at 2-3 leaves, 30th day
Summary of the method: as §2

large crabgrass = experiment: Upland foliar application test (Test 3); conditions: 30 g ai/a, foliar spray at 2-3 leaves, 30th day
Summary of the method: as §2

rice [3] = experiment: Treatment of soil under submerged condition, post-emergence (Test 5), injury; conditions: 30 g ai/a granule, 30 days later
Summary of the method: (§3)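 Granule applied to submerged greenhouse pots at two-leaf barnyardgrass; transplanted 2–3-leaf rice present; weed damage and rice injury graded 30 days on.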

bulrush [4] = experiment: Treatment of soil under submerged condition, post-emergence (Test 5); conditions: 30 g ai/a granule, 30 days later
Summary of the method: as §3

Sagittaria pygmaea [5] = experiment: as above; conditions: 30 g ai/a granule, 30 days later
Summary of the method: as §3

barnyardgrass [6] = experiment: as above; conditions: 30 g ai/a granule, post-emergence (barnyardgrass two-leaf stage), 30 days later
Summary of the method: as §3

cotton = experiment: Upland foliar application test (Test 3), crop injury; conditions: 30 g ai/a, foliar spray at 2-3 leaves, 30th day
Summary of the method: as §2

soybean = experiment: as above; conditions: 30 g ai/a, foliar spray at 2-3 leaves, 30th day
Summary of the method: as §2

peanut = experiment: as above; conditions: 30 g ai/a, foliar spray at 2-3 leaves, 30th day
Summary of the method: as §2

bulrush [7] = experiment: Treatment of soil under submerged condition, pre-emergence (Test 4); conditions: 30 g ai/a granule, 30 days later
Summary of the method: as §1

Sagittaria pygmaea [8] = experiment: as above; conditions: 30 g ai/a granule, 30 days later
Summary of the method: as §1

barnyardgrass [9] = experiment: as above; conditions: 30 g ai/a granule, 30 days later
Summary of the method: as §1

| Compound | Injury Rice (rice [1]) | IC80 (narrowleaf waterplantain) [µg/mL] | Herbicidal effects Green foxtail (green foxtail) | Herbicidal effects Johnsongrass (johnsongrass) | Herbicidal effects Common lambsquarters (common lambsquarters) | Herbicidal effects Redroot pigweed (redroot pigweed) | Herbicidal effects Foxtail meadow (foxtail meadow) | Herbicidal effects Barnyardgrass (barnyardgrass [2]) | Herbicidal effects Large crabgrass (large crabgrass) | Injury Rice (rice [3]) | Herbicidal effects Bulrush (bulrush [4]) | Herbicidal effects Sagittaria Pygmaea (Sagittaria pygmaea [5]) | Herbicidal effects Barnyardgrass (barnyardgrass [6]) | Injury Cotton (cotton) | Injury Soybean (soybean) | Injury Peanut (peanut) | Herbicidal effects Bulrush (bulrush [7]) | Herbicidal effects Sagittaria Pygmaea (Sagittaria pygmaea [8]) | Herbicidal effects Barnyardgrass (barnyardgrass [9]) |
| --- | --- | --- | --- | --- | --- | --- | --- | --- | --- | --- | --- | --- | --- | --- | --- | --- | --- | --- | --- |
| COc1cc(OC)nc(Oc2ccccc2C=NOCC=Cc2ccc(Cl)cc2)n1 [Compound No. 28] | 0 (91-100 (No damages)) | 2 (≈ 4.7 µM) | 4 (6-10 (Severe damages)) | 5 (0-5 (Death)) | 4 (6-10 (Severe damages)) | 4 (6-10 (Severe damages)) | 5 (0-5 (Death)) | 5 (0-5 (Death)) | 4 (6-10 (Severe damages)) | 0 (91-100 (No damages)) | 4 (6-10 (Severe damages)) | 4 (6-10 (Severe damages)) | 5 (0-5 (Death)) | 0 (91-100 (No damages)) | 0 (91-100 (No damages)) | 0 (91-100 (No damages)) | 3 (11-40 (Medium damages)) | 3 (11-40 (Medium damages)) | 3 (11-40 (Medium damages)) |
| COc1cc(OC)nc(Oc2ccccc2C=NOCC=Cc2cccc(C)c2)n1 [Compound No. 34, 0-(3-methylcinnamyl)-2-(4,6-dimethoxy-2-pyrimidinyloxy)benzaldoxime] | 0 (91-100 (No damages)) | 2 (≈ 4.93 µM) | 5 (0-5 (Death)) | 5 (0-5 (Death)) | 4 (6-10 (Severe damages)) | 4 (6-10 (Severe damages)) | 5 (0-5 (Death)) | 5 (0-5 (Death)) | 4 (6-10 (Severe damages)) | 1 (71-90 (Slight damages)) | 4 (6-10 (Severe damages)) | 3 (11-40 (Medium damages)) | 5 (0-5 (Death)) | 0 (91-100 (No damages)) | 0 (91-100 (No damages)) | 0 (91-100 (No damages)) | 4 (6-10 (Severe damages)) | 5 (0-5 (Death)) | 4 (6-10 (Severe damages)) |
| COc1cc(OC)nc(Oc2ccccc2C=NOCC=Cc2ccccc2C)n1 [Compound No. 39] | 1 (71-90 (Slight damages)) | 2 (≈ 4.93 µM) | 5 (0-5 (Death)) | 5 (0-5 (Death)) | 4 (6-10 (Severe damages)) | 5 (0-5 (Death)) | 5 (0-5 (Death)) | 5 (0-5 (Death)) | 5 (0-5 (Death)) | 0 (91-100 (No damages)) | 4 (6-10 (Severe damages)) | 4 (6-10 (Severe damages)) | 5 (0-5 (Death)) | 0 (91-100 (No damages)) | 0 (91-100 (No damages)) | 0 (91-100 (No damages)) | 4 (6-10 (Severe damages)) | 4 (6-10 (Severe damages)) | 5 (0-5 (Death)) |
| C=C(C)CON=Cc1ccccc1Oc1nc(OC)cc(OC)n1 [compound 5] | 0 (91-100 (No damages)) | 17 (≈ 51.6 µM) | 5 (0-5 (Death)) | 5 (0-5 (Death)) | 4 (6-10 (Severe damages)) | 4 (6-10 (Severe damages)) | 5 (0-5 (Death)) | 5 (0-5 (Death)) | 5 (0-5 (Death)) | 0 (91-100 (No damages)) | 5 (0-5 (Death)) | 5 (0-5 (Death)) | 5 (0-5 (Death)) | 0 (91-100 (No damages)) | 0 (91-100 (No damages)) | 0 (91-100 (No damages)) | 4 (6-10 (Severe damages)) | 5 (0-5 (Death)) | 4 (6-10 (Severe damages)) |

From patent US5053070A, “Pyrimidine derivatives, preparation processes thereof, herbicide containing the same, and herbicidal compositions containing the same along with other active ingredient” (Mitsui Toatsu Chemicals, Incorporated, priority 1988, dated 1991)
